Test results reported in ChEMBL document CHEMBL4421721, “Use of dynamin ring stabilizers” (2012).
Active and inactive are the calls of the source.

What was measured:
[1] = target: T1, Dynamin-1 (Homo sapiens) (UniProt Q05193); assay: Ring stabilizer activity at recombinant dynamin 1 dimeric GG2 form (unknown origin) assessed as stimulation of GTPase activity using 200 to 1000 nM full-length dynamin
T1 sequence (whole entry): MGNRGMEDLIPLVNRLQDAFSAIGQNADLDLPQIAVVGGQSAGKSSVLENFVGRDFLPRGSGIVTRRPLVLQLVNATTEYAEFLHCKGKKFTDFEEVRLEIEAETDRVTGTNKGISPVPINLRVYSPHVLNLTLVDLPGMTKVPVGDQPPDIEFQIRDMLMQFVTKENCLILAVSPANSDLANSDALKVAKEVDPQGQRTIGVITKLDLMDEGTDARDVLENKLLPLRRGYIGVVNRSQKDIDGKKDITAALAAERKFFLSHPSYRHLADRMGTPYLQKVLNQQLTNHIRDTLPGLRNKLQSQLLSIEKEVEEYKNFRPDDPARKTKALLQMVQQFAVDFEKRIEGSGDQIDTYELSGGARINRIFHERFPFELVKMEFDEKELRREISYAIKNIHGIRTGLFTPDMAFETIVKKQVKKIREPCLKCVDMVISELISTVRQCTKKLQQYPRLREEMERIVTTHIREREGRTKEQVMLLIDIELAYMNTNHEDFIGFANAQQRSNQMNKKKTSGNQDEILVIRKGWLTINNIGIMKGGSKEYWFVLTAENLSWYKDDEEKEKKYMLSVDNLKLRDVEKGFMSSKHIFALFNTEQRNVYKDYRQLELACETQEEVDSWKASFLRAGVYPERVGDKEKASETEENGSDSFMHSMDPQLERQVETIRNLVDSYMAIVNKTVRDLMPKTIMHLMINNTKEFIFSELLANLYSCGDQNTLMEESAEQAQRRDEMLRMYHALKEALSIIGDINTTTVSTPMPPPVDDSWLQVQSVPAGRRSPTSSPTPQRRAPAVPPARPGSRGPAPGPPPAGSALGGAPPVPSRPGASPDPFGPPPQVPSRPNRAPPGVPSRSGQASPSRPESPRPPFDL

[2] = target: T2, Dynamin-1 (Mus musculus) (UniProt P39053); assay: Ring stabilizer activity at dynamin in mouse podocytes assessed as increase in well-defined stress fibers incubated for 10 mins; assay type: cell-based
T2 sequence (whole entry): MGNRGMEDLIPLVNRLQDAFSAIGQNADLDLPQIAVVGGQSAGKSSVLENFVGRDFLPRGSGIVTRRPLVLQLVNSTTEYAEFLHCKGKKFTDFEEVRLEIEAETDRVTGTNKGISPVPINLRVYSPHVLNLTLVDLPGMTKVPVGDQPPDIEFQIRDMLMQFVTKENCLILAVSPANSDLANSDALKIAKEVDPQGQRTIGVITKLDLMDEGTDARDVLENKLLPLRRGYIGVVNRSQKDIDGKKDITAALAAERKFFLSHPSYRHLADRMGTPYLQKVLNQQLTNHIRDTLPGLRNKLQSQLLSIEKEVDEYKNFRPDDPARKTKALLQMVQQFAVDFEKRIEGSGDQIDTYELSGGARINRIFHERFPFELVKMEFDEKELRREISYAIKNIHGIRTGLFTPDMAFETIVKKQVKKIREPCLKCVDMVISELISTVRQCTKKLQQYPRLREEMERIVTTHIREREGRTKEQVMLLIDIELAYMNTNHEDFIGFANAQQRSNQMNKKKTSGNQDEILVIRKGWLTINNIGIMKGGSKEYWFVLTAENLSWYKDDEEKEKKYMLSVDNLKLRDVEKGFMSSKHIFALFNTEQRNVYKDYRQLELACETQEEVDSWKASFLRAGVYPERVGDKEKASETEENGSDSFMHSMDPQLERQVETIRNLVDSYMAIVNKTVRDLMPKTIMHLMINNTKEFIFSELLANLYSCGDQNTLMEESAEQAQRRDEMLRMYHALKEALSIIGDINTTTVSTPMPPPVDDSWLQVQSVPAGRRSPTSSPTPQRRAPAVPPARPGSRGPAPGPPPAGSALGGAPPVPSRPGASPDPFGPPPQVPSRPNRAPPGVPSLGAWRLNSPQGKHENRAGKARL

[3] = species on record: Ovis aries; assay: Ring stabilizer activity at full-length native sheep brain dynamin 1 assessed as stimulation of GTPase activity at 5 uM in absence of PS liposomes using <100 nM full-length dynamin 1
[4] = species on record: Mus musculus; assay: Inhibition of endocytosis in mouse podocytes; assay type: functional, cell-based
[5] = species on record: Ovis aries; assay: Induction of helical shape alteration of full-length native sheep brain dynamin 1 by electron microscopic analysis
[6] = species on record: Ovis aries; assay: Ring stabilizer activity at full-length native sheep brain dynamin 1 assessed as increase in basal dynamin GTP hydrolysis up to 40 mins in presence of Gsn-F-actin
[7] = test system: Mus musculus; assay: Reduction in proteinuria in mouse model of proteinuria expressing ACTN4 gene gain of function mutation at 166 ug/100 g body weight, ip dosed at 0 hrs and measured every 2 hrs post dose up to 6 hrs by ELISA and creatinine companion assay; assay type: functional, organism-based
[8] = species on record: Ovis aries; assay: Inhibition of dis-assembly of pre-assembled full-length native sheep brain dynamin 1 pre-incubated in presence of PS liposomes followed compound addition at 5 uM and measured after 10 mins
[9] = species on record: Ovis aries; assay: Ring stabilizer activity at full-length native sheep brain dynamin 1 assessed as stimulation of GTPase activity using 800 nM full-length dynamin in presence of 30 mM NaCl in absence of PS liposomes and measured after 4 mins; conditions: TDE = time-dependent effect
[10] = species on record: Ovis aries; assay: Inhibition of full-length native sheep brain dynamin 1 assessed as reduction in PS liposomes-induced GTPase activity at 5 uM using 400 nM full-length dynamin 1
[11] = test system: Mus musculus; assay: Reduction in proteinuria in BALB/c mouse model of LPS-induced reversible proteinuric kidney disease at 300 ug/100 g body weight, ip measured 8 hrs post dose by ELISA; assay type: functional, organism-based
[12] = species on record: Ovis aries; assay: Ring stabilizer activity at full-length native sheep brain dynamin 1 assessed as stimulation of GTPase activity at 5 uM in absence of PS liposomes using =>100 nM full-length dynamin 1
[13] = species on record: Ovis aries; assay: Inhibition of full-length native sheep brain dynamin 1 assessed as reduction in PS liposomes-induced GTPase activity at 5 uM
[14] = target: T2, Dynamin-1 (Mus musculus); assay: Ring stabilizer activity at dynamin in mouse podocytes assessed as increase in focal adhesions incubated for 10 mins by paxillin staining based assay; assay type: cell-based
[15] = species on record: Ovis aries; assay: Ring stabilizer activity at full-length native sheep brain dynamin 1 assessed as stimulation of GTPase activity in absence of PS liposomes and in presence of tween-80
[16] = test system: Mus musculus; assay: Reduction in proteinuria in BALB/c mouse model of LPS-induced reversible proteinuric kidney disease at 300 ug/100 g body weight, ip measured 2 to 6 hrs post dose by ELISA; assay type: functional, organism-based
[17] = species on record: Ovis aries; assay: Induction of self assembly of full-length native sheep brain dynamin 1 assessed as formation of dynamin rings at 5.4 uM using 200 nM full-length dynamin in absence of PS liposomes by electron microscopic analysis
[18] = species on record: Ovis aries; assay: Ring stabilizer activity at full-length native sheep brain dynamin 1 assessed as increase in basal dynamin GTP hydrolysis up to 40 mins
[19] = Inhibition of helical full-length native sheep brain dynamin 1 assessed as reduction in PS liposomes-induced GTPase activity; design: species or system Ovis aries
[20] = species on record: Ovis aries; assay: Induction of ring assembly of full-length native sheep brain dynamin 1 at 100 uM using 520 nM full-length dynamin in presence of 40 to 60 […] by Coomassie staining based SDS gel electrophoresis method
[21] = target: T3, Dynamin-1 (Rattus norvegicus) (UniProt P21575); assay: Ring stabilizer activity at Dynamin-1 rat brain synaptosomes depolarised with KCl assessed as formation of trapped endocytic pits encircled by a single electron dense ring incubated for 30 mins by electron microscopic analysis; assay type: subcellular
T3 sequence (whole entry): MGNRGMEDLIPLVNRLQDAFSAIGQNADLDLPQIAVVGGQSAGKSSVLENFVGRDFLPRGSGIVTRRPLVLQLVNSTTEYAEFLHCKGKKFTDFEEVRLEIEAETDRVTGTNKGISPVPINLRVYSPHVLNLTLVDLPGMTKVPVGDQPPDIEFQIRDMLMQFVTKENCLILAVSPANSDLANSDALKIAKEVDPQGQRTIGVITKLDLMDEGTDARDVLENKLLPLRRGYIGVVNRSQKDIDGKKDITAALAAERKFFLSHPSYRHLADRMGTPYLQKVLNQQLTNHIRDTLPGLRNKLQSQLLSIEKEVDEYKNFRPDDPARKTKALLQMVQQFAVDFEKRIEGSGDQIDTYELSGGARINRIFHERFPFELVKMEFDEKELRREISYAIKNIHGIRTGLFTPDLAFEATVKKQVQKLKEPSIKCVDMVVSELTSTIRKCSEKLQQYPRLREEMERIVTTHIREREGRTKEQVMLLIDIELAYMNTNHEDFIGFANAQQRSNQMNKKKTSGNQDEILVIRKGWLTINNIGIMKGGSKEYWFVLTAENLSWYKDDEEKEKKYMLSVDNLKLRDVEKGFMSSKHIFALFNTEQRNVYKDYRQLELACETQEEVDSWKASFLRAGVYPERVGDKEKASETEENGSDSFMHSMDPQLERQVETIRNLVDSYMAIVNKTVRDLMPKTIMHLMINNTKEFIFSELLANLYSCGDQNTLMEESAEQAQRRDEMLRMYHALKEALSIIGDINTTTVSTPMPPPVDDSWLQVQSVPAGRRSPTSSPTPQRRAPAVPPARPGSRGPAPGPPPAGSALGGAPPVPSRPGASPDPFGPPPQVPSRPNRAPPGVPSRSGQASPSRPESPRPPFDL

[22] = target: T4, Dynamin-2 (Homo sapiens) (UniProt P50570); assay: Ring stabilizer activity at Dynamin-2 in human lymphoblasts assessed as accumulation in all cells of clathrin coated pits with highly elongated necks incubated for 30 mins by electron microscopic analysis; assay type: cell-based
T4 sequence (whole entry): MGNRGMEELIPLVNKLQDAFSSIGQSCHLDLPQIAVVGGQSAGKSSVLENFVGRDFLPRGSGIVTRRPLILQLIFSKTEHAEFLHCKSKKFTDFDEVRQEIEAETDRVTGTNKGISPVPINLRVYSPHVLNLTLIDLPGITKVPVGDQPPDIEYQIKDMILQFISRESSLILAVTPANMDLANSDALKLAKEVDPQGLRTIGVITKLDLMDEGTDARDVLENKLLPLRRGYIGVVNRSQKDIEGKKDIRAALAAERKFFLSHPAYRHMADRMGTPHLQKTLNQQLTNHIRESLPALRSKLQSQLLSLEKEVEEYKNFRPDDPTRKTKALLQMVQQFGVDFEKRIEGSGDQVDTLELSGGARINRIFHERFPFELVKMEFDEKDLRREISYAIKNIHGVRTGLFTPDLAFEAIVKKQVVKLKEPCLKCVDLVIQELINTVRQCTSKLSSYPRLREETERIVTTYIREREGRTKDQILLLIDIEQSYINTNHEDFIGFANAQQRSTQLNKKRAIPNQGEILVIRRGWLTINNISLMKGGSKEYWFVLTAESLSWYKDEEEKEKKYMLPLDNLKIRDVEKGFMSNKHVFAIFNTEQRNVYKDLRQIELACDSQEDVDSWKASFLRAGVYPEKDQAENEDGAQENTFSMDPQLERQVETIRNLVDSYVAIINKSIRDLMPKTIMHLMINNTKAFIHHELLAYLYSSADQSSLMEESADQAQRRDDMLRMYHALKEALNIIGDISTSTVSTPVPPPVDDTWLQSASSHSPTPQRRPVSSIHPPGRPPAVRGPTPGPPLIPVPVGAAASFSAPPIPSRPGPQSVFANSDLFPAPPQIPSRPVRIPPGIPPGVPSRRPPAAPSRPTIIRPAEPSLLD

[23] = target: T4, Dynamin-2 (Homo sapiens); assay: Ring stabilizer activity at Dynamin-2 in human lymphoblasts assessed as accumulation in all cells of clathrin coated pits with highly elongated necks encircled by electron dense rings incubated for 30 mins by electron microscopic analysis; assay type: cell-based
[24] = species on record: Ovis aries; assay: Induction of ring assembly of full-length native sheep brain dynamin 1 at 300 uM using 520 nM full-length dynamin in presence of 40 mM NaCl by Coomassie staining based SDS gel electrophoresis method
[25] = Inhibition of full-length native sheep brain dynamin 1 assessed as reduction in PS liposomes-induced GTPase activity in presence of tween-80 using 7 nM full-length dynamin 1; design: species or system Ovis aries; conditions: read-out: IC50
[26] = Inhibition of full-length native sheep brain dynamin 1 assessed as reduction in PS liposomes-induced GTPase activity; design: species or system Ovis aries
[27] = species on record: Ovis aries; assay: Ring stabilizer activity at full-length native sheep brain dynamin 1 assessed as stimulation of GTPase activity in absence of PS liposomes

N#C/C(=C\c1cc(O)c(O)c(O)c1)C(=O)NCCCNC(=O)/C(C#N)=C/c1cc(O)c(O)c(O)c1
inactive: Activity [1] | Activity [3] | inhibition [10] | Activity [11]
500 nM: IC50 [19]
active: Activity [2] | inhibition [4] | Activity [5] | Activity [6] | Activity [7] | inhibition [8] | Activity [9] Tde | Activity [12] | inhibition [13] | Activity [14] | Activity [15] | Activity [16] | Activity [17] | Activity [18]

N#C/C(=C\c1ccc(O)c(O)c1)C(=O)NCCCNC(=O)/C(C#N)=C/c1ccc(O)c(O)c1
inactive: Activity [1]
active: Activity [20] | Activity [21] | Activity [22] | Activity [23] | Activity [15] | Activity [24]

O=C(N/N=C/c1cc(O)c(O)cc1O)c1cc2ccccc2cc1O
2700 nM: IC50 [25]
active: Activity [27]
300 nM: IC50 [26]
inactive: Activity [15]
